Calls of active or inactive are those of the source. The rule behind the calls is not given here.
Legend:
Type in all cases: functional, organism-based
[1] = tested on: Mus musculus; assay: Antiallodynic activity in hyperglycemic Swiss Webster mouse model of neuropathic pain assessed as reversal of carrageenan-induced tactile allodynia at 30 ug/paw local peripheral administration and measured after 6 hrs; settings: dose 30.0 µg
[2] = species on record: Mus musculus; assay: Antiallodynic activity in hyperglycemic Swiss Webster mouse model of neuropathic pain assessed as reversal of carrageenan-induced tactile allodynia at 30 ug/paw, it and measured after 6 hrs; settings: dose 30.0 µg
[3] = tested on: Mus musculus; assay: Antiinflammatory activity in Swiss Webster mouse assessed as protection against carrageenan-induced paw edema at 30 ug/paw, it; settings: dose 30.0 µg
[4] = species on record: Mus musculus; assay: Antiallodynic activity in Swiss Webster mouse assessed as protection against carrageenan-induced tactile allodynia at 30 ug/paw pretreated with glibenclamide for 15 mins followed by compound addition and measured after 6 hrs; settings: dose 30.0 µg
[5] = tested on: Mus musculus; assay: Antiallodynic activity in local peripheral dosed Swiss Webster mouse assessed as protection against carrageenan-induced tactile allodynia pretreated with compound for 15 mins followed by carrageenan challenge and measured after 6 hrs; settings: dose 1-30 µg, time 375.0 min
[6] = species on record: Mus musculus; assay: Antiallodynic activity in Swiss Webster mouse assessed as protection against carrageenan-induced tactile allodynia at 30 ug/paw pretreated with l-NAME for 15 mins followed by compound addition and measured after 6 hrs; settings: dose 30.0 µg
[7] = species on record: Mus musculus; assay: Antiallodynic activity in Swiss Webster mouse assessed as protection against carrageenan-induced tactile allodynia at 30 ug/paw pretreated with flumazenil for 15 mins followed by compound addition and measured after 6 hrs; settings: dose 30.0 µg
[8] = tested on: Mus musculus; assay: Antiinflammatory activity in local peripheral dosed Swiss Webster mouse assessed as protection against carrageenan-induced paw edema pretreated with compound for 15 mins followed by carrageenan challenge and measured after 6 hrs; settings: dose 1-30 µg, time 375.0 min
[9] = tested on: Mus musculus; assay: Antiinflammatory activity in Swiss Webster mouse assessed as protection against carrageenan-induced paw edema at 30 ug/paw local peripheral pretreatment with compound for 15 mins followed by carrageenan challenge and measured after 6 hrs; settings: dose 30.0 µg, time 375.0 min
[10] = tested on: Mus musculus; assay: Antiinflammatory activity in Swiss Webster mouse assessed as protection against carrageenan-induced paw edema at 3 to 30 ug/paw local peripheral pretreatment with compound for 15 mins before carrageenan challenge and measured every 3 days for 15 days; settings: dose 3-30 µg, time 15.0 day
[11] = species on record: Mus musculus; assay: Antiallodynic activity in Swiss Webster mouse assessed as protection against carrageenan-induced tactile allodynia at 30 ug/paw pretreated with methiothepin for 15 mins followed by compound addition and measured after 6 hrs; settings: dose 30.0 µg
[12] = tested on: Mus musculus; assay: Antiallodynic activity in local peripheral dosed hyperglycemic Swiss Webster mouse model of neuropathic pain assessed as reversal of carrageenan-induced tactile allodynia measured after 6 hrs; settings: dose 3-30 µg
[13] = tested on: Mus musculus; assay: Antiinflammatory activity in Swiss Webster mouse assessed as protection against carrageenan-induced paw edema at 30 ug/paw pretreated with ODQ for 15 mins followed by compound addition and measured after 6 hrs; settings: dose 30.0 µg
[14] = tested on: Mus musculus; assay: Antiinflammatory activity in Swiss Webster mouse assessed as reversal of carrageenan-induced paw edema at 30 ug/paw local peripheral administration pretreated with carrageenan for 6 days followed by compound addition and measured 6 hrs post compound treatment; settings: dose 30.0 µg
[15] = tested on: Mus musculus; assay: Antiinflammatory activity in Swiss Webster mouse assessed as protection against carrageenan-induced paw edema at 30 ug/paw pretreated with naloxone for 15 mins followed by compound addition and measured after 6 hrs; settings: dose 30.0 µg
[16] = tested on: Mus musculus; assay: Antiallodynic activity in it dosed Swiss Webster mouse assessed as protection against carrageenan-induced tactile allodynia
[17] = tested on: Mus musculus; assay: Antiinflammatory activity in Swiss Webster mouse assessed as protection against carrageenan-induced paw edema at 30 ug/paw pretreated with flumazenil for 15 mins followed by compound addition and measured after 6 hrs; settings: dose 30.0 µg
[18] = tested on: Mus musculus; assay: Antiinflammatory activity in Swiss Webster mouse assessed as protection against carrageenan-induced paw edema at 30 ug/paw pretreated with glibenclamide for 15 mins followed by compound addition and measured after 6 hrs; settings: dose 30.0 µg
[19] = tested on: Mus musculus; assay: Antiinflammatory activity in Swiss Webster mouse assessed as protection against carrageenan-induced paw edema at 30 ug/paw pretreated with methiothepin for 15 mins followed by compound addition and measured after 6 hrs; settings: dose 30.0 µg
[20] = tested on: Mus musculus; assay: Antiallodynic activity in Swiss Webster mouse assessed as reversal of carrageenan-induced tactile allodynia at 30 ug/paw local peripheral administration pretreated with carrageenan for 6 days followed by compound addition and measured 6 hrs post compound treatment; settings: dose 30.0 µg
[21] = species on record: Mus musculus; assay: Antiallodynic activity in Swiss Webster mouse assessed as protection against carrageenan-induced tactile allodynia at 30 ug/paw pretreated with ODQ for 15 mins followed by compound addition and measured after 6 hrs; settings: dose 30.0 µg
[22] = species on record: Mus musculus; assay: Antiallodynic activity in Swiss Webster mouse assessed as protection against carrageenan-induced tactile allodynia at 30 ug/paw local peripheral pretreatment with compound for 15 mins followed by carrageenan challenge and measured after 6 hrs; settings: dose 30.0 µg, time 375.0 min
[23] = tested on: Mus musculus; assay: Antiallodynic activity in local peripheral dosed Swiss Webster mouse assessed as protection against carrageenan-induced tactile allodynia measured every 3 days for 15 days; settings: dose 3-30 µg, time 15.0 day
[24] = species on record: Mus musculus; assay: Antiallodynic activity in Swiss Webster mouse assessed as protection against carrageenan-induced tactile allodynia at 30 ug/paw pretreated with naloxone for 15 mins followed by compound addition and measured after 6 hrs; settings: dose 30.0 µg
[25] = tested on: Mus musculus; assay: Antiinflammatory activity in Swiss Webster mouse assessed as protection against carrageenan-induced paw edema at 30 ug/paw pretreated with l-NAME for 15 mins followed by compound addition and measured after 6 hrs; settings: dose 30.0 µg
[26] = tested on: Mus musculus; assay: Antiallodynic activity in it dosed hyperglycemic Swiss Webster mouse model of neuropathic pain assessed as reversal of carrageenan-induced tactile allodynia measured after 6 hrs; settings: dose 3-30 µg
[27] = tested on: Mus musculus; assay: Antiinflammatory activity in Swiss Webster mouse assessed as protection against carrageenan-induced paw edema at 30 ug/paw local peripheral administration and measured after 4 to 6 hrs; settings: dose 30.0 µg, time 4-6 hrs

Structure (SMILES): CC(C)C[C@H](CN)CC(=O)O
- Activity [1]: inactive
- Activity [2]: Active

Structure (SMILES): C=C[C@@]1(C)[C@H]2OC(=O)C(=C)[C@H]([C@@H]2OC(=O)/C(C)=C\C)[C@H](OC(=O)C(C)C)[C@@H]1C(=C)C(=O)O
- Activity [3]: inactive
- Activity [4]: inactive
- Activity [5]: Dose-Dependent Effect
- Activity [6]: inactive
- Activity [7]: inactive
- Activity [8]: Dose-Dependent Effect
- Activity [9]: Active
- Activity [10]: inactive
- Activity [11]: inactive
- Activity [12]: Dose-Dependent Effect
- Activity [13]: inactive
- Activity [14]: Active
- Activity [15]: inactive
- Activity [16]: Dose-Dependent Effect
- Activity [17]: inactive
- Activity [18]: inactive
- Activity [19]: inactive
- Activity [1]: Active
- Activity [20]: Active
- Activity [2]: Active
- Activity [21]: inactive
- Activity [22]: Active
- Activity [23]: Dose-Dependent Effect
- Activity [24]: inactive
- Activity [25]: inactive
- Activity [26]: Dose-Dependent Effect
- Activity [27]: Active

Structure (SMILES): O=C(O)Cc1ccccc1Nc1c(Cl)cccc1Cl
- Activity [9]: Active
- Activity [14]: inactive
- Activity [20]: inactive
- Activity [22]: Active
- Activity [27]: Active

From ChEMBL document CHEMBL4837182, “Pharmacological Analysis of the Anti-inflammatory and Antiallodynic Effects of Zinagrandinolide E from Zinnia grandiflora in Mice” (J Nat Prod, 2021)
